# Measured values taken from patent EP4458916A1, “PHOTOCATALYTICALLY ACTIVE COATING COMPOSITION, METHOD FOR THE PRODUCTION THEREOF AND USE THEREOF” (priority 2023, dated 2024).
# Read-outs that look alike come from different tables or passages of the source.
# Legend:
# [1] = test system: verschiedene Bakterienstämme; test: Bacteria test following modified ISO 22196, photodynamic effect of a SolGel coating on different bacterial strains; type: cell-based; details: Rezeptur 5 coating on Melamin, 2 mM, 4 h
# From the text: (§1) Die Bestimmung der antimikrobiellen Aktivität erfolgte nach einer modifizierten Version der ISO 22196:2011-08 ("Messung von antibakterieller Aktivität auf Kunststoff- und anderen porenfreien Oberflächen", Ausgabedatum: 2011-08).
# (§2) Bei der Testdurchführung wurde ein dünner Flüssigkeitsfilm, in dem die Bakterien enthalten sind (1,25 x 10^4 /cm2), direkt auf die Probekörper (2,5 cm x 2,5 cm) aufgebracht. Direkt nach Beimpfung wurden von der Nullprobe die Bakterien von den Probekörperoberflächen mittels Ultraschall und Vortexen abgelöst und die Keimzahl (KBE (engl. CFU), Kolonie-bildende Einheit) bestimmt (t0-Wert). Ein weiterer Satz Nullproben und antimikrobiell ausgestatteter Proben wurden mit Bakterien im Flüssigkeitsfilm bei Raumtemperatur inkubiert. Nach 4 h wurden überlebende Bakterien von den Probekörperoberflächen mittels Ultraschall und Vortexen abgelöst und die Keimzahl bestimmt (t4-Wert).
# (§3) Im Unterschied zu der in der ISO 22196:2011-08 beschriebenen Methode wurde das Inokulum nicht mit einer Folie abgedeckt und die Inkubationszeit von 24 auf 4 Stunden reduziert. Weiterhin wurden die Platten der Proben 3 und 4 mit Licht mit einer Intensität von 300 µW/cm2 belichtet.
# Die Ergebnisse sind Tabelle 53 dargestellt. Tabelle 53: Photodynamische Wirkung einer SolGel Beschichtung gegen verschiedene Bakterienstämme
# [2] = test system: Bakterien; test: Durability: bacteria test (ISO 22196) after immersion in Incidin Plus (10% in water) or isopropanol (70% in water); type: cell-based; details: 4 h, Rezeptur 2 (Borsäure) on Melamin, 2 mM
# From the text: as §1, §2, §3
# Um die Haltbarkeit der Beschichtung bzw. das Auswaschen des Farbstoffs gegen gängige Reinigungs- und Desinfektionsmitteln, wurden damit Immersionstests in Incidin Plus (Ecolab GmbH, 10% in Wasser, Farbstoff S-25a) und Isopropanol (70% in Wasser) durchgeführt.
# Der Bakterientest wurde in Anlehnung an ISO 22196 nach oben beschriebener Methode durchgeführt. Die Ergebnisse sind in den Tabellen 59 und 60 zusammengefasst. Tabelle 59: Mikrobiologische Wirksamkeit (Iog10 Reduktion) nach X h Immersion in Incidin Plus (10% in Wasser).
compound,measurement,setting,value
CC(C)(O)c1cc[n+](CC2=Cc3cccc4cccc(c34)C2=O)cc1 [S-25a],log reduction at 2000 µM,"[1]; Acinetobacter baumannii, ATCC15308, A. baumanii ATCC 15308 (Gram negativ), 300 µW/cm2, read-out: Log10 Reduktion Probe",> 4
same,log reduction at 2000 µM,"[1]; Acinetobacter baumannii, ATCC15308, A. baumanii ATCC 15308 (Gram negativ), dark, read-out: Log10 Reduktion Dunkelkontrolle",0.1
same,log reduction at 2000 µM,"[1]; Enterococcus faecium, E.faecium EDCC 5271 (Gram positiv), 300 µW/cm2, read-out: Log10 Reduktion Probe",> 4
same,log reduction at 2000 µM,"[1]; Enterococcus faecium, E.faecium EDCC 5271 (Gram positiv), dark, read-out: Log10 Reduktion Dunkelkontrolle",0
same,log reduction at 2000 µM,"[1]; Staphylococcus aureus, ATCC6538, S.aureus ATCC 6538 (Gram positiv), 300 µW/cm2, read-out: Log10 Reduktion Probe",> 4
same,log reduction at 2000 µM,"[1]; Staphylococcus aureus, ATCC6538, S.aureus ATCC 6538 (Gram positiv), dark, read-out: Log10 Reduktion Dunkelkontrolle",0.1
same,log reduction at 2000 µM,"[2]; Immersion in Incidin Plus (10% in Wasser) 0 h, read-out: Log10 Reduktion nach 0 h, Probe",3.7
same,log reduction at 2000 µM,"[2]; Immersion in Incidin Plus (10% in Wasser) 1 h, dark, read-out: Log10 Reduktion nach 1 h, Dunkelkontrolle",0.8
same,log reduction at 2000 µM,"[2]; Immersion in Incidin Plus (10% in Wasser) 1 h, read-out: Log10 Reduktion nach 1 h, Probe",2.6
same,log reduction at 2000 µM,"[2]; Immersion in Incidin Plus (10% in Wasser) 2 h, read-out: Log10 Reduktion nach 2 h, Probe",2.4
same,log reduction at 2000 µM,"[2]; Immersion in Incidin Plus (10% in Wasser) 3 h, read-out: Log10 Reduktion nach 3 h, Probe",1.4
